Measurements: ChEMBL document CHEMBL5543121, “Drug Repurposing of ACT001 to Discover Novel Promising Sulfide Prodrugs with Improved Safety and Potent Activity for Neutrophil-Mediated Antifungal Immunotherapy” (J Med Chem, 2024)
Activity calls are given as the source filed them. The rule behind the calls is not given here.

Key:
[1] = Inhibition of fungal curdlan induced PD-L1 expression in mouse neutrophils assessed as reduction in PD-L1 positive Ly6G positive neutrophils incubated for 16 hrs by flow cytometry analysis; type: functional, cell-based; settings: Neutrophil
[2] = Oral bioavailability in Sprague-Dawley rat; type: ADME, organism-based; settings: in vivo
[3] = Permeability of compound in PBS/EtOH (70:30) buffer incubated for 12 hrs by PAMPA-BBB assay; type: ADME; settings: read-out: permeability
Neutrophil [4] = experiment: Induction of apoptosis in mouse neutrophils assessed as dead cells at 40 uM incubated for 16 hrs by Annexin V-FITC/PI staining based flow cytometry analysis (reference value: 1.58%); type: toxicity, cell-based
[5] = Induction of apoptosis in mouse neutrophils assessed as live cells at 20 uM incubated for 16 hrs by Annexin V-FITC/PI staining based flow cytometry analysis (reference value: 48.5%); type: toxicity, cell-based, Neutrophil; settings: read-out: Activity
Neutrophil [6] = experiment: Induction of apoptosis in mouse neutrophils assessed as late apoptotic cells at 20 uM incubated for 16 hrs by Annexin V-FITC/PI staining based flow cytometry analysis (reference value: 24.1%); type: toxicity, cell-based
[7] = biological target: Signal transducer and activator of transcription 3 (Mus musculus) (UniProt P42227); experiment: Inhibition of biotinylated ACT001 probe binding to STAT3 in mouse bone marrow neutrophils at 100 uM by pulldown based Western blot analysis; type: cell-based; settings: Neutrophil
[8] = Cytotoxicity against mouse neutrophils assessed as reduction in cell viability incubated for 16 hrs by flow cytometry analysis; type: toxicity, cell-based, Neutrophil
Neutrophil [9] = experiment: Induction of apoptosis in mouse neutrophils assessed as early apoptotic cells at 40 uM incubated for 16 hrs by Annexin V-FITC/PI staining based flow cytometry analysis (reference value: 25.9%); type: toxicity, cell-based
Candida albicans [10] = experiment: Induction of neutrophil-mediated antifungal immunity against Candida albicans SC5314 infected in mouse assessed as reduction in fungal clusters in kidney at 100 mg/kg, po administered once a day for 3 days by PAS staining based analysis; type: functional, organism-based; settings: time 3.0 day
Candida albicans [11] = experiment: Induction of neutrophil-mediated antifungal immunity against Candida albicans SC5314 infected in mouse assessed as inhibition of CXCL1 protein expression in bone marrow at 100 mg/kg, po administered once a day for 3 days by ELISA; type: functional, organism-based; settings: time 3.0 day
[12] = (§1) Cytotoxicity against mouse neutrophils assessed as cell viability at 40 uM relative to control; type: toxicity, cell-based, Neutrophil; settings: mouse neutrophils, read-out: Activity
Neutrophil [13] = experiment: Induction of apoptosis in mouse neutrophils assessed as dead cells at 20 uM incubated for 16 hrs by Annexin V-FITC/PI staining based flow cytometry analysis (reference value: 1.58%); type: toxicity, cell-based
Candida albicans [14] = experiment: Induction of neutrophil-mediated antifungal immunity against Candida albicans SC5314 infected in mouse assessed as reduction in PD-L1 positive Ly6G positive neutrophils in bone marrow at 100 mg/kg, po administered once a day for 3 days by flow cytometry analysis; type: functional, organism-based; settings: time 3.0 day
Neutrophil [15] = experiment: Induction of neutrophil-mediated antifungal immunity against Candida albicans SC5314 infected in mouse assessed as increase in neutrophil infiltration in kidney at 100 mg/kg, po administered once a day for 3 days; type: functional, organism-based; settings: time 3.0 day
[16] = Therapeutic index, ratio of IC50 for cytotoxicity against mouse neutrophils to IC50 for inhibition of fungal curdlan induced PD-L1 expression in mouse neutrophils; type: toxicity; settings: read-out: Ratio IC50
Candida albicans [17] = experiment: Induction of neutrophil-mediated antifungal immunity against Candida albicans SC5314 infected in mouse assessed as reduction in PD-L1 positive Ly6G positive neutrophils in kidney at 100 mg/kg, po administered once a day for 3 days by flow cytometry analysis; type: functional, organism-based; settings: time 3.0 day
Candida albicans [18] = experiment: Induction of neutrophil-mediated antifungal immunity against Candida albicans SC5314 infected in mouse assessed as reduction in fungal burden in kidneys at 100 mg/kg, po administered once a day for 3 days; type: functional, organism-based; settings: time 3.0 day
Candida albicans [19] = experiment: Induction of neutrophil-mediated antifungal immunity against Candida albicans SC5314 infected in mouse assessed as increase in animal survival rate at 100 mg/kg, po administered once a day for 3 days; type: functional, organism-based; settings: time 3.0 day
[20] = Inhibition of fungal curdlan induced PD-L1 expression in mouse neutrophils at 40 uM relative to control; type: functional, Neutrophil; settings: for inhibition at 40 µM: Mus musculus, Neutrophil; for inhibition (INH): 40 µM
Candida albicans [21] = experiment: Antifungal activity against Candida albicans SC5314 assessed as inhibition of fungal growth at 0.25 to 128 ug/ml measured every 3 hrs for 24 hrs by absorbance based analysis; type: functional, organism-based; settings: dose 0.25-128 µg/ml
Candida albicans [22] = experiment: Induction of neutrophil-mediated antifungal immunity against Candida albicans SC5314 infected in mouse assessed as inhibition of CXCL2 protein expression in bone marrow at 100 mg/kg, po administered once a day for 3 days by ELISA; type: functional, organism-based; settings: time 3.0 day
Neutrophil [23] = experiment: Induction of apoptosis in mouse neutrophils assessed as early apoptotic cells at 20 uM incubated for 16 hrs by Annexin V-FITC/PI staining based flow cytometry analysis (reference value: 25.9%); type: toxicity, cell-based
Neutrophil [24] = experiment: Induction of apoptosis in mouse neutrophils assessed as late apoptotic cells at 40 uM incubated for 16 hrs by Annexin V-FITC/PI staining based flow cytometry analysis (reference value: 24.1%); type: toxicity, cell-based
[25] = Induction of apoptosis in mouse neutrophils assessed as live cells at 40 uM incubated for 16 hrs by Annexin V-FITC/PI staining based flow cytometry analysis (reference value: 48.5%); type: toxicity, cell-based, Neutrophil; settings: read-out: Activity
Candida albicans [26] = experiment: Induction of neutrophil-mediated antifungal immunity against Candida albicans SC5314 infected in cyclophosphamide-induced immunosuppressed C57BL/6 mouse at 100 mg/kg, po pretreated with CTX for 3 days followed by fungal infection and further administered with compound once a day for 3 days; type: functional, organism-based; settings: time 3.0 day
[27] = Half life in Sprague-Dawley rat; type: ADME; settings: in vivo
[28] = AUC (0 to infinity) in Sprague-Dawley rat at 20 mg/kg, iv; type: ADME, organism-based; settings: in vivo
Candida albicans [29] = experiment: Induction of neutrophil-mediated antifungal immunity against Candida albicans SC5314 infected in mouse assessed as reduction in accumulation of Ly6G positive neutrophils in bone marrow at 100 mg/kg, po administered once a day for 3 days; type: functional, organism-based; settings: time 3.0 day
Candida albicans [30] = experiment: Antifungal activity against candida albicans SC5314 infected in mouse assessed as reduction in PD-L1 positive Ly6G-positive neutrophils in kidney at 200 mg/kg, po administered on day 1 and 3; type: functional, organism-based; settings: time 1-3 day
Candida albicans [31] = experiment: Antifungal activity against candida albicans SC5314 infected in mouse assessed as reduction in fungal burden in kidney at 200 mg/kg, po administered on day 1 and 3; type: functional, organism-based; settings: time 1-3 day
[32] = system: Polymorphonuclear neutrophil; experiment: Inhibition of fungal curdlan induced PD-L1 protein expression in mouse polymorphonuclear neutrophils at 20 uM incubated for 16 hrs by ELISA; type: functional, cell-based
[33] = biological target: Signal transducer and activator of transcription 3 (Homo sapiens, UniProt P40763); experiment: Binding affinity to Cys542 residue of human recombinant STAT3 assessed as covalent modification by measuring mass shift by LC-MS/MS analysis
[34] = Cytotoxicity against mouse polymorphonuclear neutrophils assessed as cell viability at 20 uM incubated for 16 hrs; type: toxicity, cell-based; settings: polymorphonuclear neutrophil
Neutrophil [35] = experiment: as §1; type: toxicity, cell-based; settings: neutrophil, 40 µM
Candida albicans [36] = experiment: Antifungal activity against Candida albicans SC5314 assessed as inhibition of fungal growth measured every 3 hrs for 24 hrs by absorbance based analysis; type: functional, organism-based; settings: dose 0.25-128 µg/ml
[37] = biological target: Signal transducer and activator of transcription 3 (Mus musculus) (UniProt P42227); experiment: Binding affinity to STAT3 in mouse bone marrow neutrophils at 20 uM by pulldown based Western blot analysis; type: cell-based; settings: Neutrophil
[38] = biological target: Signal transducer and activator of transcription 3 (Mus musculus) (UniProt P42227); experiment: Binding affinity to STAT3 in mouse bone marrow neutrophils at 20 uM by silver staining based pulldown assay; type: cell-based; settings: Neutrophil

Sequence of Signal transducer and activator of transcription 3 (Mus musculus) (P42227 whole entry): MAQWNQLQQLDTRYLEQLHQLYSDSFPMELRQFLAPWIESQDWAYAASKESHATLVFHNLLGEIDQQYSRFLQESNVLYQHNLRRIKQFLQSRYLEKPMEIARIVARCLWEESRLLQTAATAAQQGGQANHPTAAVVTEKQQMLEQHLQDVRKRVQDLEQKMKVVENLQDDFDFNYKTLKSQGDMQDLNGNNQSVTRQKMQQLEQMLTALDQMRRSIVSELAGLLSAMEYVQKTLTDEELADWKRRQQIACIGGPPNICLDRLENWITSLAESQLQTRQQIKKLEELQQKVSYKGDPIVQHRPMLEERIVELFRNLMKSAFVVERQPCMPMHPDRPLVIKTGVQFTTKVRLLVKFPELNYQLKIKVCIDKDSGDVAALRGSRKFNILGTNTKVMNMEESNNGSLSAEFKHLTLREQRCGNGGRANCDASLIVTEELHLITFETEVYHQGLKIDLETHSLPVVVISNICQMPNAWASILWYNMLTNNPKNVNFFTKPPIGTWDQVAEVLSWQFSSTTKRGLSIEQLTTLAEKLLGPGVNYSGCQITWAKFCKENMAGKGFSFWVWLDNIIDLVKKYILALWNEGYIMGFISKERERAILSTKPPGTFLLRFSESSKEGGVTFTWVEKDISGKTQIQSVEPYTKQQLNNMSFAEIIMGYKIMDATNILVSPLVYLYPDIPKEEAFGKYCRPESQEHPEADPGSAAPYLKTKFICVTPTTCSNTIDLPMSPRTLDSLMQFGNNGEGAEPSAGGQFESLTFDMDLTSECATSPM
Sequence of Signal transducer and activator of transcription 3 (P40763 whole entry): as the sequence (P42227 whole entry) above, with D760E counted along it

CC1=C2CC[C@@](C)(O)[C@@H]2[C@H]2OC(=O)[C@@H](CN(C)C)[C@@H]2CC1 [ACT-001]
IC50 [1]: 16.8 µM
bioavailability [2]: 50.8%
Papp at 12 h [3]: 4.7 ×10⁻⁶ cm/s
Activity (Neutrophil [4]): 4.28%
viability at 16 h, 20 µM [5]: 37.1%
Activity (Neutrophil [6]): 25.2%
inhibition [7]: Active
IC50 at 16 h [8]: 29.3 µM
Activity (Neutrophil [9]): 39.2%
Activity (Candida albicans [10]): Active
Activity (Candida albicans [11]): Active
viability at 40 µM [12]: 27.6%
Activity (Neutrophil [13]): 2.62%
Activity (Candida albicans [14]): Active
Activity (Neutrophil [15]): Active
selectivity ratio [16]: 1.7
Activity (Candida albicans [17]): Active
Activity (Candida albicans [18]): Active
Activity (Candida albicans [19]): Active
inhibition at 40 µM [20]: 72.8%
Activity (Candida albicans [21]): inactive
Activity (Candida albicans [22]): Active
Activity (Neutrophil [23]): 35.1%
Activity (Neutrophil [24]): 29.9%
viability at 16 h, 40 µM [25]: 26.6%
Activity (Candida albicans [26]): inactive
half-life [27]: 1.12 h
AUC(0-inf) [28]: 5540 ng·h/mL
Activity (Candida albicans [29]): Active

Cc1ccc(S(=O)(=O)C[C@@H]2C(=O)O[C@H]3[C@H]2CC[C@]2(C)O[C@@]24CC[C@@](C)(O)[C@H]34)cc1
Activity (Candida albicans [30]): Active
viability at 40 µM [12]: 71.5%
inhibition at 40 µM [20]: 82%
Activity (Candida albicans [31]): Active

C=C1C(=O)O[C@H]2[C@H]1CC[C@]1(C)O[C@@]13CC[C@@](C)(O)[C@H]23
inhibition [32]: Active
Activity [33]: 265 Da
Activity [34]: Non-Toxic

CC1=C2CC[C@@](C)(O)[C@@H]2[C@H]2OC(=O)[C@@H](C[S+]([O-])c3ccc(Cl)cc3Cl)[C@@H]2CC1 (stereo in doubt; 22b)
Activity (Neutrophil [35]): 21.1%
inhibition (INH) [20]: 47.66%

C[C@@]1(O)CC[C@]23O[C@@]2(C)CC[C@@H]2[C@H](OC(=O)[C@H]2C[S+]([O-])c2ccc(Cl)cc2Cl)[C@@H]13 (stereo in doubt; 23b)
Activity (Neutrophil [35]): 65.45%
inhibition (INH) [20]: 52.64%

OC(Cn1cncn1)(Cn1cncn1)c1ccc(F)cc1F
Activity (Candida albicans [36]): Dose-Dependent Effect

CC1=C2CC[C@@](C)(O)[C@@H]2[C@H]2OC(=O)[C@@H](C[S+]([O-])c3ccc(Cl)cc3Cl)[C@@H]2CC1 (stereo in doubt; 22a)
Activity (Neutrophil [35]): 74.28%
inhibition at 40 µM [20]: 64.8%

C=C1C(=O)O[C@H]2[C@H]1CCC(C)=C1CC[C@@](C)(OC(=O)CCCc3cn(CCOCCOCCOCCNC(=O)CCCC[C@H]4SC[C@H]5NC(=O)N[C@H]54)nn3)[C@@H]12
Activity [37]: Active
Activity [38]: Active

C[C@@]1(O)CC[C@]23O[C@@]2(C)CC[C@@H]2[C@H](OC(=O)[C@H]2CS(=O)(=O)c2ccc(Cl)cc2Cl)[C@@H]13
viability at 40 µM [12]: 74.9%
inhibition at 40 µM [20]: 78.8%

CC1=C2CC[C@@](C)(O)[C@@H]2[C@H]2OC(=O)[C@@H](CSC3CCCCC3)[C@@H]2CC1
viability at 40 µM [12]: 101%
inhibition at 40 µM [20]: 15.8%

C[C@@]1(O)CC[C@]23O[C@@]2(C)CC[C@@H]2[C@H](OC(=O)[C@H]2CS(=O)(=O)c2ncccn2)[C@@H]13
viability at 40 µM [12]: 55.5%
inhibition at 40 µM [20]: 85%

CC1=C2CC[C@@](C)(O)[C@@H]2[C@H]2OC(=O)[C@@H](CSc3ccncc3)[C@@H]2CC1
viability at 40 µM [12]: 57.2%
inhibition at 40 µM [20]: 72.5%
